Tests used:
ROS = ROS (Homo sapiens, UniProt P08922); experiment: In vitro ROS enzymatic reaction assay (HTRF, Cisbio); type: biochemical; design: ROS or EGFR enzyme, 0.008 ng/ul; details: ROS kinase; for inhibition at 10 µM: compound at 10 uM, read-out: Kinase Inhib. 10 uM (%)
Protocol: The ROS enzymatic reactions were carried out with a high throughput screening platform for phosphor-detection of kinase activity. This platform based on homogeneous time resolved fluorescence (HTRF) technology from Cisbio Bioassays, Inc. (Cisbio). […] The reaction was allowed to proceed for 30 minutes at room temperature. An equal volume of detection buffer was then added to the reaction mix.

[1] = test system: HeLa cervical cancer cell line; experiment: In-vitro cell survival assay (Alamar blue), HeLa; type: cell-based; details: Homo sapiens, 24 h, one day after compound addition
Protocol: (§1) Five tumor-derived cell lines were treated with the ROS inhibitor compounds and cell survival was monitored to determine the cancer prohibition effects of the compounds. The cell lines included HeLa, a cervical cancer cell line, and four glioblastoma cell lines U138, U87, LN18, and U118. The basic protocol for the in-vitro cell survival assay is the same for all five cell lines. In particular, the cells were seeded in 96-well plates at 2-5×10^3 cells/well (cell line dependent) in culture medium. The cells were grown for 2 days before the compounds were dissolved in DMSO and added to final concentrations of 100 uM, 10 uM, or 1 uM (DMSO final concentration 0.5%). The cell culture was then assayed one day after the addition of the compounds. The assay used Alamar blue as a redox-sensitive dye that interrogates mitochondrial fitness of cells, and these assays provided a readout for cell proliferation and viability. The raw values were normalized to an average of several vehicle control wells and are presented as percent decrease in proliferation/viability, which is converted to half maximal effective concentration (EC50) values.

[2] = test system: LN18 glioblastoma cell line; experiment: In-vitro cell survival assay (Alamar blue), LN18; type: cell-based; details: Homo sapiens, LN-18, 24 h; LN18, one day after compound addition
Protocol: as §1

[3] = test system: U138 glioblastoma cell line; experiment: In-vitro cell survival assay (Alamar blue), U138; type: cell-based; details: 24 h; U138, one day after compound addition
Protocol: as §1

[4] = test system: U87 glioblastoma cell line; experiment: In-vitro cell survival assay (Alamar blue), U87; type: cell-based; details: 24 h; U87, one day after compound addition
Protocol: as §1

[5] = test system: U118 glioblastoma cell line; experiment: In-vitro cell survival assay (Alamar blue), U118; type: cell-based; details: 24 h; U118, one day after compound addition
Protocol: as §1

ROS, sequence (P08922 28-2347): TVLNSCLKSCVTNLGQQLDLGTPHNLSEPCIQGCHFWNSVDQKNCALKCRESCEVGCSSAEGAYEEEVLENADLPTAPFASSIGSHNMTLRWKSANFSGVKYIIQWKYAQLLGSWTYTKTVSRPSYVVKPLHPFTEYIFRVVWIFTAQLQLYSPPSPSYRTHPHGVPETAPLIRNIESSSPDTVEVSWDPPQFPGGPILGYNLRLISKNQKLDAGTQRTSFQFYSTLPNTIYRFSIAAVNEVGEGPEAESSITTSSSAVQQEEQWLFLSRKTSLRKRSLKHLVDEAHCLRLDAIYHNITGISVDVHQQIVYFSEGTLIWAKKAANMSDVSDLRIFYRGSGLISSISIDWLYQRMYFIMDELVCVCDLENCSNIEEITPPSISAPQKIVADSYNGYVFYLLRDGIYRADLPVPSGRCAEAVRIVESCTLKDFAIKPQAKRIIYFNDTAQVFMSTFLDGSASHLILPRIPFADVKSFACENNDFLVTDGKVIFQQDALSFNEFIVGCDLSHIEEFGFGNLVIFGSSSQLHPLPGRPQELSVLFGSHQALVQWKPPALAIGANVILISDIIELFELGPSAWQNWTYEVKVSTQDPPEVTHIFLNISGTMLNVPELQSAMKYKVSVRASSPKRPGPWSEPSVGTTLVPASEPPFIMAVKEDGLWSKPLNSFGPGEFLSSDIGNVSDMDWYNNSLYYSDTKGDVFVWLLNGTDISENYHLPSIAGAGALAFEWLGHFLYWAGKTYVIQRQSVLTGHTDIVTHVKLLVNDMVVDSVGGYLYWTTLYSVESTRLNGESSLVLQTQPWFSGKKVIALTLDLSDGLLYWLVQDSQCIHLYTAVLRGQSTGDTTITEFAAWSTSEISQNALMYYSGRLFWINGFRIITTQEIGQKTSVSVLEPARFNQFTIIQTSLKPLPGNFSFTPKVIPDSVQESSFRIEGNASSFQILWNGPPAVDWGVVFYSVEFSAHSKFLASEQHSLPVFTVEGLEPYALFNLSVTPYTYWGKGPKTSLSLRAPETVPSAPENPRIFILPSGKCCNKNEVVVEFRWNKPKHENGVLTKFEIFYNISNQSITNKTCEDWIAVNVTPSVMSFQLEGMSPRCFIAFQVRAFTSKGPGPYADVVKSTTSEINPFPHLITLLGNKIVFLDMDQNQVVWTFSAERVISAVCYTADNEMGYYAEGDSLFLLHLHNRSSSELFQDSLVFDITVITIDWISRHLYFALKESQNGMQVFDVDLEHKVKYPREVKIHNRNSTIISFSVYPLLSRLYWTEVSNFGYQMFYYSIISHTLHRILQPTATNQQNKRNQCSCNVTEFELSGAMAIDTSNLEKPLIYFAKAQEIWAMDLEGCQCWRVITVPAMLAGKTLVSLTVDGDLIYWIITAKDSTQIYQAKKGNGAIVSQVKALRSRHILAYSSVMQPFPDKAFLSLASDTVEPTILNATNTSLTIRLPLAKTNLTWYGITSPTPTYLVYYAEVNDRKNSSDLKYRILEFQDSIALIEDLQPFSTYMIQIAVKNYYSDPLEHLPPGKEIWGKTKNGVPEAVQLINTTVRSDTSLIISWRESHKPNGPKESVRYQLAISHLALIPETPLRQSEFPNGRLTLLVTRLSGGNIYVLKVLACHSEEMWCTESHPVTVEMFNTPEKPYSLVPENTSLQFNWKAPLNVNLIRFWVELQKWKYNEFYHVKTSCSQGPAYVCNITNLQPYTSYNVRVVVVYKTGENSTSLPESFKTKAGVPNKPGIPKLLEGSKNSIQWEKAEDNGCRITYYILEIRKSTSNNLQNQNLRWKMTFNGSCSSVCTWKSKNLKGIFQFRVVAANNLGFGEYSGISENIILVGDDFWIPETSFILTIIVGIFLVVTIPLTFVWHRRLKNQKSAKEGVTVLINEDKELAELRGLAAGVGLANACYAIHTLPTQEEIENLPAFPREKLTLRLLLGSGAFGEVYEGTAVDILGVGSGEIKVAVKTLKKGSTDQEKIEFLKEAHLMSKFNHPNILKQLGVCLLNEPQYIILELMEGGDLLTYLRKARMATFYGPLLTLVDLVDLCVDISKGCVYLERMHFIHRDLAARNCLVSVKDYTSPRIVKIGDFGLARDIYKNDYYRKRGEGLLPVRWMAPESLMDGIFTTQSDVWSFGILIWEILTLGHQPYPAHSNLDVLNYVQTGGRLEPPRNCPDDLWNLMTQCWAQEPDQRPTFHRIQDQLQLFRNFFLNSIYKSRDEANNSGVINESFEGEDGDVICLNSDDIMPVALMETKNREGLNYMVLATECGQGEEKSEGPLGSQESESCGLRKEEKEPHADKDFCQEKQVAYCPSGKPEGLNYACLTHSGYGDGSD

Row | inhibition at 10 µM (ROS) | inhibition at 5 µM (ROS; compound at 5 uM, read-out: Kinase Inhib. 5 uM (%)) | Compound | EC50 [1] | EC50 [2] | EC50 [3] | EC50 [4] | EC50 [5]
1 | 23.2% |  | O=C(CCn1ccc2ccccc21)Nc1ccc(F)cc1 [drawing 338] |  |  |  |  | 
2 | 26.4% |  | COc1ccc(C(F)(F)F)cc1NC(=O)CCn1ccc2ccccc21 [drawing 339] |  |  |  |  | 
3 | 14.3% |  | O=C(CCn1ccc2ccccc21)Nc1cnccn1 [drawing 340] |  |  |  |  | 
4 | 20.8% |  | CCc1cc(Br)ccc1NC(=O)CCn1ccc2ccccc21 [drawing 341] |  |  |  |  | 
5 | 28.9% |  | Cc1cc(-c2ccccc2)c2ccc(N)nc2n1 [drawing 343] |  |  |  |  | 
6 | 24.6% |  | Nc1cccc2cccc(N=C(CC(=O)O)C(=O)O)c12 [drawing 344] |  |  |  |  | 
7 | 26.5% |  | COc1ccc(NC(=O)CC2=Nc3cccc4cccc(c34)NC2=O)cc1 [drawing 345] |  |  |  |  | 
8 | 22.5% |  | O=C(CC1=Nc2cccc3cccc(c23)NC1=O)NCc1cccc(I)c1 [drawing 346] |  |  |  |  | 
9 |  | 100% | C[C@@H](Oc1cc(-c2cnn(C3CCNCC3)c2)cnc1N)c1c(Cl)ccc(F)c1Cl [drawing 354] |  |  |  |  | 
10 |  |  | O=C1NN=C(c2ccccc2)/C1=C/Nc1ccccc1 [drawing 368] | > 100 µM | > 100 µM |  |  | 
11 |  |  | COc1ccc(N/C=C2\C(=O)NN=C2c2ccccc2)cc1 [drawing 369] | 100 µM | 78 µM |  |  | 
12 |  |  | Cc1ccc(NC=C2C(=O)NN=C2c2ccccc2)cc1 [drawing 370] | > 100 µM | 52 µM |  |  | 
13 |  |  | Nc1cccc(C2CCN(c3nccc(Nc4ccc5ncsc5c4)n3)CC2)c1 [drawing 439] | 6 µM | 15 µM | 5 µM | 14 µM | 
14 |  |  | c1cc(Nc2nccc(Nc3ccc4ncsc4c3)n2)cc(C2CCNCC2)c1 [drawing 440] | 15 µM | 18 µM | 25 µM | 35 µM | 
15 |  |  | C1=C(c2cccc(Nc3nccc(Nc4ccc5ncsc5c4)n3)c2)CCNC1 [drawing 441] | 13 µM | 22 µM | 25 µM | 40 µM | 
16 |  |  | Brc1cccc(Nc2nccc(Nc3ccc4ncsc4c3)n2)c1 [drawing 442] | > 100 µM | > 100 µM | > 100 µM | > 100 µM | 
17 |  |  | O=C(c1ccc(Nc2ncc(Cl)c(Nc3ccc4ncsc4c3)n2)cc1)N1CCCCC1 [drawing 443] | > 100 µM | > 100 µM | > 100 µM | > 100 µM | 
18 |  |  | CN1CCN(C(=O)c2ccc(Nc3ncc(Cl)c(Nc4ccc5ncsc5c4)n3)cc2)CC1 [drawing 444] | 12 µM | 22 µM | 28 µM | 15 µM | 
19 |  |  | O=C(O)c1ccc(Nc2ncc(Cl)c(Nc3ccc4ncsc4c3)n2)cc1 [drawing 445] | 5 µM | 18 µM | 100 µM | > 100 µM | 
20 |  |  | CC(C)(C)OC(=O)NC1CCN(C(=O)c2ccc(Nc3ncc(Cl)c(Nc4ccc5ncsc5c4)n3)cc2)CC1 [drawing 446] | 15 µM | 18 µM | 9 µM | 80 µM | 
21 |  |  | CC(C)c1nc(Nc2ccc3ncsc3c2)nc(N2CCCC2)n1 [drawing 451] | 30 µM | 40 µM | 28 µM | > 100 µM | 
22 |  |  | CC(C)c1nc(Nc2ccc3ncsc3c2)nc(N2CCOCC2)n1 [drawing 452] | 100 µM | 80 µM | 80 µM | > 100 µM | 
23 |  |  | CC(C)c1nc(Nc2ccc(C(=O)NCc3ccccc3)cc2)nc(Nc2cccc(Cc3nc4ccccc4s3)c2)n1 [drawing 453] | > 100 µM | > 100 µM | > 100 µM | > 100 µM | 
24 |  |  | CC(C)c1nc(Nc2ccc(C(=O)NCC3CCCCC3)cc2)nc(Nc2cccc(Cc3nc4ccccc4s3)c2)n1 [drawing 454] | > 100 µM | > 100 µM | > 100 µM | > 100 µM | 
25 |  |  | CC(C)c1nc(Nc2ccc(C(=O)N3CCCCC3)cc2)nc(Nc2ccc3ncsc3c2)n1 [drawing 455] | 30 µM | 30 µM | 18 µM | 40 µM | 
26 |  |  | CC(C)c1nc(Nc2ccc(C(=O)NC3CCCCC3)cc2)nc(Nc2ccc3ncsc3c2)n1 [drawing 456] | 28 µM | 30 µM | 40 µM | 45 µM | 

Row | inhibition at 10 µM (ROS) | inhibition at 5 µM (ROS; compound at 5 uM, read-out: Kinase Inhib. 5 uM (%)) | Compound | EC50 [1] | EC50 [2] | EC50 [3] | EC50 [4] | EC50 [5]
27 |  |  | CC(C)c1nc(Nc2ccc(C(=O)N3CCCC3)cc2)nc(Nc2ccc3ncsc3c2)n1 [drawing 457] | 4 µM | 20 µM | 22 µM | 30 µM | 
28 |  |  | CC(C)c1nc(Nc2ccc(C(=O)N3CCN(C)CC3)cc2)nc(Nc2ccc3ncsc3c2)n1 [drawing 458] | 30 µM | 40 µM | 28 µM | 35 µM | 
29 |  |  | CC(C)c1nc(Nc2ccc(C(=O)NCc3ccccc3)cc2)nc(Nc2ccc3ncsc3c2)n1 [drawing 459] | 35 µM | 80 µM | 80 µM | 100 µM | 
30 |  |  | CC(C)c1nc(Nc2ccc(C(=O)N3CCOCC3)cc2)nc(Nc2ccc3ncsc3c2)n1 [drawing 460] | 35 µM | 80 µM | > 100 µM | > 100 µM | 
31 |  |  | CC(C)c1nc(Nc2ccc(N)cc2)nc(Nc2cc(C3CC3)[nH]n2)n1 [drawing 461] | 14 µM | 40 µM | 8 µM | 35 µM | 
32 |  |  | O=C(O)c1cccc(Nc2ncc(Cl)c(Nc3ccc4ncsc4c3)n2)c1 [drawing 462] | 15 µM | 40 µM | 100 µM | > 100 µM | 
33 |  |  | NCC1CCN(C(=O)c2ccc(Nc3ncc(Cl)c(Nc4ccc5ncsc5c4)n3)cc2)CC1 [drawing 463] | 70 µM | 100 µM | 80 µM | > 100 µM | 
34 |  |  | NC1CCN(C(=O)c2ccc(Nc3ncc(Cl)c(Nc4ccc5ncsc5c4)n3)cc2)CC1 [drawing 464] | 30 µM | 40 µM | 60 µM | 40 µM | 
35 |  |  | O=C(c1cccc(Nc2ncc(Cl)c(Nc3ccc4ncsc4c3)n2)c1)N1CCCCC1 [drawing 465] | 7 µM | 14 µM | 15.3 µM | 12 µM | 
36 |  |  | CN1CCN(C(=O)c2cccc(Nc3ncc(Cl)c(Nc4ccc5ncsc5c4)n3)c2)CC1 [drawing 466] | 2 µM | 15 µM | 15 µM | 24 µM | 
37 |  |  | COc1ccc(C2=CCNCC2)cc1Nc1nccc(Nc2ccc3ncsc3c2)n1 [drawing 467] | 15 µM | 15 µM | 6.9 µM | 18 µM | 
38 |  |  | O=C(NCC1CCNCC1)c1ccc(Nc2ncc(Cl)c(Nc3ccc4ncsc4c3)n2)cc1 [drawing 468] | > 100 µM | > 100 µM | > 100 µM | > 100 µM | 
39 |  |  | NC1CCN(C(=O)c2cccc(Nc3ncc(Cl)c(Nc4ccc5ncsc5c4)n3)c2)CC1 [drawing 469] | 20 µM | 40 µM | 25 µM | 35 µM | 
40 |  |  | NCC1CCN(C(=O)c2cccc(Nc3ncc(Cl)c(Nc4ccc5ncsc5c4)n3)c2)CC1 [drawing 470] | 3 µM | 19 µM | 20 µM | 18 µM | 
41 |  |  | O=C(NCC1CCNCC1)c1cccc(Nc2ncc(Cl)c(Nc3ccc4ncsc4c3)n2)c1 [drawing 471] | 30 µM | 30 µM | 80 µM | 80 µM | 
42 |  |  | Cc1ccc(NC(=O)CCn2ccc3ccccc32)cc1 [drawing 472] | > 100 µM |  | > 100 µM |  | > 100 µM
43 |  |  | CCOC(=O)c1ccc(NC(=O)CCn2ccc3ccccc32)cc1 [drawing 473] | > 100 µM |  | > 100 µM |  | > 100 µM
44 |  |  | COc1ccc(NC(=O)CCn2ccc3ccccc32)cc1 [drawing 474] | 30 µM |  | > 100 µM |  | > 100 µM
45 |  |  | O=C(CCn1ccc2ccccc21)Nc1ccc(F)cc1 [drawing 475] | > 100 µM |  | > 100 µM |  | > 100 µM
46 |  |  | COc1ccc(C(F)(F)F)cc1NC(=O)CCn1ccc2ccccc21 [drawing 476] | > 100 µM |  | 98 µM |  | 47 µM
47 |  |  | O=C(CCn1ccc2ccccc21)Nc1cnccn1 [drawing 477] | 64 µM |  | 92 µM |  | 33 µM
48 |  |  | CCc1cc(Br)ccc1NC(=O)CCn1ccc2ccccc21 [drawing 478] | 43 µM |  | > 100 µM |  | > 100 µM
49 |  |  | NC(Cc1ccccc1)C(=O)n1ccc2cccnc21 (stereo not drawn) [drawing 479] | 45 µM |  | > 100 µM |  | > 100 µM
50 |  |  | Cc1cc(-c2ccccc2)c2ccc(N)nc2n1 [drawing 480] | 58 µM |  | 46 µM |  | > 100 µM
51 |  |  | Nc1cccc2cccc(N=C(CC(=O)O)C(=O)O)c12 [drawing 481] | 63 µM |  | > 100 µM |  | > 100 µM

Row | Compound | inhibition at 10 µM (ROS) | inhibition at 5 µM (ROS; compound at 5 uM, read-out: Kinase Inhib. 5 uM (%)) | EC50 [1] | EC50 [2] | EC50 [3] | EC50 [4] | EC50 [5]
52 | NC(Cc1ccccc1)C(=O)n1ccc2cccnc21 (stereo not drawn) [drawing 342] | 26.9% |  |  |  |  |  | 
